Source: US7122321B2, “High throughput method for functionally classifying proteins identified using a genomics approach” (Johnson & Johnson Pharmaceutical Research & Development, …, priority 1997, dated 2006)
Each block holds one molecule with its values, some of them ahead of it.

Tests used:
Bovine muscle myosin = experiment: microplate thermal shift assay of ATP binding, myosin
Method: (§1) Bovine muscle myosin (Sigma), bovine heart 3′–5′ cAMP-dependent protein kinase (Sigma), and chicken muscle pyruvate kinase (Sigma) were each dissolved in Buffer A to generate stock solutions at a final concentration of 2 mg/mL. […] 10 μL of mineral oil was then added to each of the four wells to prevent evaporation. Each data point shown was collected by heating the plate at the temperatures shown for three minutes. For example, the plate was heated to a given temperature, and then allowed to cool to 25 ° C. for one minute, followed by UV illumination and collection of the data. Then the plate was heated to the next higher temperature, and so forth. UV illumination was performed using a long wavelength illumination at […]–420 nm, having a peak at 365 nm. Fluorescence was imaged using a CCD camera having a bandpass filter centered at 550 nm.

[1] = molecular target: T1, chicken muscle pyruvate kinase (Gallus gallus, UniProt P00548); experiment: microplate thermal shift assay of ATP binding, pyruvate kinase; conditions: 10 mM, standard deviation in parentheses
T1 construct: chicken muscle pyruvate kinase (Sigma); purchased Sigma; host or cells: chicken muscle
Method: as §1

[2] = molecular target: T2, bovine heart 3′–5′ cAMP-dependent protein kinase (Bos taurus, UniProt P00517); experiment: microplate thermal shift assay of ATP binding, cAMP-dependent protein kinase
T2 construct: bovine heart 3′–5′ cAMP-dependent protein kinase (Sigma); purchased Sigma; host or cells: bovine heart

D(II) FGFR1 = molecular target: T3, D(II) FGFR1 (Homo sapiens, UniProt P11362); experiment: functional probe library screen (microplate thermal shift assay) against D(II) FGFR1; format: binding; conditions: functional probe library Plate 1; for effect on thermal stability of D(II) FGFR1: 50 μM D(II) FGFR1
T3 construct: domain II of the fibroblast growth factor receptor 1 (D(II)FGFR1); hexa-histidine (N); made in house; host or cells: E. coli (renatured from inclusion bodies)
T3 sequence (P11362 158-246 limits assumed): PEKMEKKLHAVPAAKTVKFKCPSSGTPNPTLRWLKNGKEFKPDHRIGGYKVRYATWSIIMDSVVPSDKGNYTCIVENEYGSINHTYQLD
Description: The compounds in functional probe library Plate 1 was also employed to generate an activity spectrum for D(II) FGFR1. D(II) FGFR1 was cloned and expressed in E. coli. Recombinant D(II) FGFR1 was renatured from inclusion bodies essentially as described (Wetmore, D. R. et al., Proc. Soc. Mtg., San Diego, Calif. (1994)), except that a hexa-histidine tag was included at the N-terminus to facilitate recovery by affinity chromatography on a Ni^2+ chelate column (Janknecht, R. et al., Natl. Acad Sci. USA 88:8972–8976 (1991)). D(II) FGFR1 was further purified on a heparin-sepharose column (Kan, M. et al., Science 259:1918–1921 (1993); Pantoliano, M. W. et al., Biochemistry 33:10229–10248 (1994)). Purity was >95%, as judged by SDS-PAGE. The D(II) FGFR1 protein was concentrated to 12 mg/mL (˜1 mM) and stored at 4° C.
Reactions were prepared in 96-well polycarbonate microtitre plate v-bottom wells. The final concentration of D(II) FGFR1 was 50 μM in […], pH 8 in each well of a 96-well polycarbonate microtitre plate.
The fluorescence emission was measured at 460 nm.

[3] = system: pigeon liver arylamine acetyltransferase; experiment: microplate thermal shift assay, arylamine acetyltransferase; format: binding; conditions: Arylamine Acetyl transferase
[4] = molecular target: T4, porcine liver formimino glutamic acid transferase (Sus scrofa, UniProt P53603); experiment: microplate thermal shift assay, formimino glutamic acid transferase; format: binding; conditions: Formimino L-Glutamic acid Transferase
T4 construct: porcine liver formimino glutamic acid transferase (FGT, Sigma); purchased Sigma; host or cells: porcine liver
T4 sequence (P53603 1-541): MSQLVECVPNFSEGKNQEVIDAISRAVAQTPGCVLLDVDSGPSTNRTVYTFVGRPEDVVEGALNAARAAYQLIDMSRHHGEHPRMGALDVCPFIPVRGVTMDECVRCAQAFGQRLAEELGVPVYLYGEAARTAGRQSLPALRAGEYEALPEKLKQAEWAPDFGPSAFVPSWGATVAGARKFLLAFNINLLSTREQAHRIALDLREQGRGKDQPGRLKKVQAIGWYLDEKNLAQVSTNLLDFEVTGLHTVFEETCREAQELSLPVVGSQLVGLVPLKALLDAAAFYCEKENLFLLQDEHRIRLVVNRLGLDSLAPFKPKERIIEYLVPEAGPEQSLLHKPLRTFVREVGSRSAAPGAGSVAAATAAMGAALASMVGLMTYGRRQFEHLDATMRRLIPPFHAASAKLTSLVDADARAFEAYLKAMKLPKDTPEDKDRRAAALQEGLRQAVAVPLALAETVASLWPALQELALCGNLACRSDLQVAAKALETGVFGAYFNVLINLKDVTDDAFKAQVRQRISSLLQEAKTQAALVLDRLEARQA
Method: Folic acid binding can be assayed using the microplate thermal shift assay. Bovine liver dihydrofolate reductase (DHFR, Sigma), chicken liver dihydrofolate reductase (DHFR, Sigma), pigeon liver arylamine acetyltransferase (ArAcT, Sigma), and porcine liver formimino glutamic acid transferase (FGT, Sigma) were each dissolved in Buffer A (50 mM HEPES, pH 7.5, 100 mM NaCl) to generate stock solutions at a final concentration of 2 mg/mL. Solutions of dihydrofolic acid (FAH2), methotrexate, nicotinamide adenine dinucleotide phosphate (NADP), were prepared by dissolving solid material into Buffer A immediately prior to use. Dapoxyl™ 12800 solution was prepared by diluting a stock of 20 mM Dapoxyl™, 12800 in dimethyl sulfoxide to the appropriate concentration in Buffer A.
For the thermal shift assay, four 10 μL aliquots of each assay mixture were dispensed into four wells located in different quadrants of an MJ Research 384-well thermocycler plate. 10 μL of mineral oil was then added to each of the four wells to prevent evaporation. Each data point shown was collected by heating the plate at the temperature shown for three minutes, followed by incubation at 25° C. for one minute, followed by UV illumination and collection of the data.

[5] = molecular target: T5, Bovine liver dihydrofolate reductase (Bos taurus, UniProt P00376); experiment: microplate thermal shift assay, bovine DHFR; format: binding; parameters: Bovine liver dihydrofolate reductase (DHFR, Sigma); purchased Sigma; host or cells: bovine liver; conditions: for ΔTm of ligand complexed with DHFR: DHFR (cow), single ligand 10 mM
T5 sequence (P00376 1-187): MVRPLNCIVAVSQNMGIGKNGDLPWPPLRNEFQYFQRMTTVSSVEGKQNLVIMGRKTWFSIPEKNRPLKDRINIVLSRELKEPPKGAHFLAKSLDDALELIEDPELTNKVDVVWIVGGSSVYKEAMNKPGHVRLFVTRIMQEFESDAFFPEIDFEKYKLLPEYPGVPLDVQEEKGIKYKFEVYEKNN

[6] = molecular target: T6, chicken liver dihydrofolate reductase (Gallus gallus, UniProt P00378); experiment: microplate thermal shift assay, chicken DHFR; format: binding; conditions: for ΔTm of ligand complexed with DHFR: DHFR (chicken), single ligand 10 mM
T6 construct: chicken liver dihydrofolate reductase (DHFR, Sigma); purchased Sigma; host or cells: chicken liver
T6 sequence (P00378 1-189): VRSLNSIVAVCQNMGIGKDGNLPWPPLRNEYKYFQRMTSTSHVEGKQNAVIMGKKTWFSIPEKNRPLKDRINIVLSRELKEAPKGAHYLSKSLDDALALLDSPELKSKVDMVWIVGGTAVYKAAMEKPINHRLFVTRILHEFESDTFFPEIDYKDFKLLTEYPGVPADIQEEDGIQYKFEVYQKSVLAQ

[7] = molecular target: T5, Bovine liver dihydrofolate reductase; experiment: microplate thermal shift assay, bovine DHFR; format: binding; parameters: Kd; Kd; Tm of the thermal unfolding curve; control 47.2° C; control 50.8° C; ΔTm; conditions: FIG. 12
human α-thrombin (human) [8] = molecular target: human α-thrombin (human) (UniProt P00734); experiment: microplate thermal shift assay, 50 µM hirudin peptide added to thrombin in the presence of 200 µM heparin 5000 (shift against TH/Heparin 5000)
human α-thrombin (human) [9] = molecular target: human α-thrombin (human) (UniProt P00734); experiment: microplate thermal shift assay, 50 µM hirudin peptide added to thrombin in the presence of 50 µM 3DP-4660 (shift against TH/3dp-4660)
human α-thrombin (human) [10] = molecular target: human α-thrombin (human) (UniProt P00734); experiment: microplate thermal shift assay, Kd at Tm, hirudin peptide binding thrombin in the presence of 200 µM heparin 5000
human α-thrombin (human) [11] = molecular target: human α-thrombin (human) (UniProt P00734); experiment: microplate thermal shift assay, Kd at 298 K estimated, hirudin peptide binding thrombin in the presence of 50 µM 3DP-4660
human α-thrombin (human) [12] = molecular target: human α-thrombin (human) (UniProt P00734); experiment: microplate thermal shift assay, Kd at Tm, hirudin peptide binding thrombin in the presence of 50 µM 3DP-4660
human α-thrombin (human) [13] = molecular target: human α-thrombin (human) (UniProt P00734); experiment: microplate thermal shift assay, Kd at 298 K estimated, hirudin peptide binding thrombin in the presence of 200 µM heparin 5000
human α-thrombin (human) [14] = molecular target: human α-thrombin (human) (UniProt P00734); experiment: microplate thermal shift assay, 1 µM thrombin + 50 µM hirudin peptide alone
[15] = Myosin, 10 mM, standard deviation in parentheses

T1 sequence (P00548 whole entry): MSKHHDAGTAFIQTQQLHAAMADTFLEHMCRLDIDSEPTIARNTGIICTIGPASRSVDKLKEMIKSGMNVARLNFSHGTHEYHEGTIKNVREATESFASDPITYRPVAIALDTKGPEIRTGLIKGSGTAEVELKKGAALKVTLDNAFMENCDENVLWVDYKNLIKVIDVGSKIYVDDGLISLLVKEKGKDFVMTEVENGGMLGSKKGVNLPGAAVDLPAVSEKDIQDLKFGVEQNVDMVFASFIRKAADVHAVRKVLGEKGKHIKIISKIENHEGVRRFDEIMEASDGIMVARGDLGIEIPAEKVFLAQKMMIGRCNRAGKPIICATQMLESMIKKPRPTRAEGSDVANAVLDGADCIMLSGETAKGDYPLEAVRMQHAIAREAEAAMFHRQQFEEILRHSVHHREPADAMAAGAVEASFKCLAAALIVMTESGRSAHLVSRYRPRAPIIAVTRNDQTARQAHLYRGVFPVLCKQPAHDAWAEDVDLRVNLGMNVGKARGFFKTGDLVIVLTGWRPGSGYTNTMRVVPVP

Molecule: Nc1ncnc2c1ncn2[C@@H]1O[C@H](COP(=O)(O)OP(=O)(O)OP(=O)(O)O)[C@@H](O)[C@H]1O [ATP, adenosine triphosphate]
Tm of the thermal unfolding curve (Bovine muscle myosin; (+)ATP, FIG. 9, control 49.3° C.): 51.4 °C
Kd (Bovine muscle myosin; FIG. 9): 440000 nM
ΔTm (Bovine muscle myosin; FIG. 9): 2.1 °C
ΔTm (Bovine muscle myosin; [15]): 2.2 (±0.4) ° C.
ΔTm at 10000 µM [1]: -0.44 °C

Molecule: Nc1ncnc2c1ncn2[C@@H]1O[C@H](COP(=O)(O)OP(=O)(O)OP(O)(O)=S)[C@@H](O)[C@H]1O [ATP-γ-S, adenosinetriphosphate-γ-S]
ΔTm (Bovine muscle myosin; [15]): 0.0 (±0.2) ° C.
ΔTm ([2]; 3′–5′ cAMP Protein kinase, 10 mM, standard deviation in parentheses): 5.6 (±1.7) ° C.
Tm of the thermal unfolding curve ([2]; (+) ATP-γ-S, FIG. 10, control 46.2° C.): 51.8 °C
Kd ([2]; FIG. 10): 200000 nM
ΔTm ([2]; FIG. 10): 5.6 °C
ΔTm [1]: 0.8 (±0.11) ° C.

effect on thermal stability of D(II) FGFR1 (D(II) FGFR1): stabilize
Molecule: O=C[C@H](O)[C@@H](O)[C@H](O)[C@H](O)CO [D(+)-glucose]

effect on thermal stability of D(II) FGFR1 (D(II) FGFR1): stabilize
Molecule: OC[C@H]1O[C@@](CO)(O[C@H]2O[C@H](CO)[C@@H](O)[C@H](O)[C@H]2O)[C@@H](O)[C@@H]1O [D(+)-sucrose]

Molecule: Nc1nc2c(c(=O)[nH]1)N=C(CNc1ccc(C(=O)N[C@@H](CCC(=O)O)C(=O)O)cc1)CN2 [FAH2, dihydrofolic acid]
ΔTm ([3]; 100 μM): −1.8 (±0.5)
ΔTm at 100 µM [4]: 3.62 °C

Molecule: CN(Cc1cnc2nc(N)nc(N)c2n1)c1ccc(C(=O)N[C@@H](CCC(=O)O)C(=O)O)cc1 [Methotrexate, methotrexate]
ΔTm ([3]; 100 μM): 1.0 (±0.4)
ΔTm at 100 µM [4]: 0.9 °C

ΔTm of ligand complexed with DHFR [5]: 9.7 degrees
ΔTm of ligand complexed with DHFR [6]: 11.9 degrees
Tm of the thermal unfolding curve ([7]; (+) NADPH 10 mM, control 50.8° C.): 53.8 °C
Kd [7]: 700 nM
ΔTm ([7]; NADPH 10 mM): 3 °C
Molecule: NC(=O)C1=CN([C@@H]2O[C@H](COP(=O)(O)OP(=O)(O)OC[C@H]3O[C@@H](n4cnc5c(N)ncnc54)[C@H](OP(=O)(O)O)[C@@H]3O)[C@@H](O)[C@H]2O)C=CC1 [NADPH, nicotinamide adenine dinucleotide phosphate-reduced form]

effect on thermal stability of D(II) FGFR1 (D(II) FGFR1): stabilize
Molecule: OC[C@@H](O)[C@@H](O)[C@H](O)[C@@H](O)CO [sorbitol]

thermal shift of D(II) FGFR1 (D(II) FGFR1; largest shift): about 11 °C
Molecule: O=P(O)(O)OP(=O)(O)OP(=O)(O)O [tri-polyphosphate]

effect on thermal stability of D(II) FGFR1 (D(II) FGFR1): stabilize
Molecule: OC[C@@H](O)[C@H](O)[C@@H](O)CO [xylitol]

ΔTm (human α-thrombin (human) [8]): 2.6 ° K.
ΔTm (human α-thrombin (human) [9]): 4.6 ° K.
Kd (human α-thrombin (human) [10]): 4250 nM
Kd (human α-thrombin (human) [11]): 54 nM
Kd (human α-thrombin (human) [12]): 731 nM
Kd (human α-thrombin (human) [13]): 478 nM
ΔTm (human α-thrombin (human) [14]): 5.8 ° K.
Molecule: Hirugen (hirudin 53-64) (Sigma) (from UniProt P09945 60-71) (peptide)

Molecule: nicotinamide adenine dinucleotide phosphate [NADP]
ΔTm of ligand complexed with DHFR [5]: 6.3 degrees
ΔTm ([5]; DHFR (first row, reference Tm 52.47), 5 mM): 3.2 (±0.13)
ΔTm of ligand complexed with DHFR [6]: 7.5 degrees
ΔTm ([6]; DHFR (second row, reference Tm 56.6), 5 mM): 3.8 (±0.4)
ΔTm ([3]; 5 mM): 2.8 (±0.4)
ΔTm ([4]; 5 mM): 0.0 (±0.2)
